Consider 13 molecules from ChEMBL document CHEMBL1201862, “PubChem BioAssay data set” (2004).

Structures are written as SMILES.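 The compound was tested at five concentrations on cells cultured in 96-well plates, with a 48-hour exposure period. Here, GI50 denotes the concentration required for 50% inhibition of growth.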 Activity calls are given as the source filed them. Cut-off read from the data, not from the text of the source: active = GI50 up to about 1.1 µM and inactive = higher.

Test systems include A498; U-251; HT-29; SF-539; IGROV-1; OVCAR-3; SK-MEL-5; RPMI-8226; UACC-257; 786-0; UO-31; SK-MEL-2; KM12; OVCAR-5; SN12C; UACC-62; TK-10.
What all share (experiment): DTP human tumour cell line panel, 48 h

Take `CCCCCCc1cc(C(=O)Nc2cccc(C(F)(F)F)c2)nc(N)n1`: the GI50 in the test with A498, in the test on U-251, with HT-29, in the test with SF-539, in the test on IGROV-1 and with OVCAR-3 was > 100 µM (inactive) throughout. For the same molecule, the GI50 in the test on SK-MEL-5, with RPMI-8226, in the test on UACC-257, in the test on 786-0, in the test with UO-31 and with SK-MEL-2 was > 100 µM (inactive) throughout. The GI50 in the test with KM12, in the test with OVCAR-5, in the test with SN12C, with UACC-62 and in the test on TK-10 was > 100 µM (inactive) throughout.

As for `NCCCN(CCCN)CCCNCc1c2ccccc2c(CNCCCN(CCCN)CCCN)c2ccccc12`, the GI50 in the test on A498 was 28.2 µM (inactive); with U-251, 16.7 µM (inactive); in the test with HT-29 it was 11 µM (inactive); in the test on SF-539, 14.7 µM (inactive); in the test on IGROV-1, 11.1 µM (inactive); in the test on OVCAR-3, 19 µM (inactive). The GI50 is 4.6 µM (inactive) with SK-MEL-5; 3.24 µM (inactive) in the test on RPMI-8226; 13.7 µM (inactive) in the test on UACC-257; 11.4 µM (inactive) in the test on 786-0; 29.6 µM (inactive) in the test on UO-31; 23.7 µM (inactive) in the test with SK-MEL-2. For the same molecule, the GI50 in the test with KM12 is 4.37 µM (inactive); with OVCAR-5, 42 µM (inactive); in the test on SN12C, 15.4 µM (inactive); in the test on UACC-62, 7.21 µM (inactive); in the test with TK-10 it was 10.8 µM (inactive).

As to `COc1ccc(/C=c2\sc3n(c2=O)C(N)=C(C#N)C(c2ccc(OC)cc2)C=3c2nc3ccccc3[nH]2)cc1` (stereo not drawn), the GI50 in the test with A498 is 29.6 µM (inactive); in the test with U-251, 18 µM (inactive); in the test with SF-539 it was > 10 µM (inactive); in the test on IGROV-1 it was 44.7 µM (inactive); in the test on OVCAR-3, 19.6 µM (inactive); with SK-MEL-5 it was 16.9 µM (inactive). Also, the GI50 was 55.6 µM (inactive) in the test on RPMI-8226; 28.9 µM (inactive) in the test on UACC-257; > 100 µM (inactive) with 786-0; > 100 µM (inactive) in the test on UO-31; 28.6 µM (inactive) in the test on SK-MEL-2; 14.2 µM (inactive) in the test with KM12. Further, the GI50 in the test with OVCAR-5 is 27.4 µM (inactive); in the test on SN12C, 78.7 µM (inactive); in the test on UACC-62, 79.4 µM (inactive); in the test with TK-10, 16.1 µM (inactive).

Turning to `COc1ccc(/C=C2/CCCC/C2=N/O)cc1`, the GI50 in the test with A498 was 24.2 µM (inactive); in the test with U-251, > 100 µM (inactive); in the test on HT-29, > 100 µM (inactive); with SF-539, > 100 µM (inactive); in the test with IGROV-1, 41 µM (inactive); in the test with OVCAR-3, > 100 µM (inactive). For the same molecule, the GI50 in the test with RPMI-8226, in the test with UACC-257, in the test on 786-0, in the test with UO-31, in the test on SK-MEL-2 and in the test with KM12 was > 100 µM (inactive) throughout. For the same molecule, the GI50 with OVCAR-5 is > 100 µM (inactive); in the test with SN12C it was 75.7 µM (inactive); in the test on UACC-62 it was > 100 µM (inactive); in the test with TK-10 it was > 100 µM (inactive).

Turning to `COc1c2c(cc3nc4ccccc4nc13)CCC(C(C)(C)O)C2` (stereo not drawn), the GI50 with A498 was > 100 µM (inactive); in the test on U-251 it was > 100 µM (inactive); with HT-29 it was 66.4 µM (inactive); with SF-539, > 100 µM (inactive); in the test with IGROV-1, > 100 µM (inactive); in the test with OVCAR-3, 49.5 µM (inactive). The GI50 in the test with SK-MEL-5 was 45.1 µM (inactive); in the test on UACC-257 it was > 100 µM (inactive); in the test on 786-0, > 100 µM (inactive); in the test with UO-31 it was 83.2 µM (inactive); in the test with SK-MEL-2, > 100 µM (inactive); in the test on KM12, 82.6 µM (inactive). In addition, the GI50 in the test on OVCAR-5, in the test with SN12C, in the test with UACC-62 and with TK-10 was > 100 µM (inactive) in each case.

As to `COc1cc(CC(C(=O)O)C(=O)O)c(OC)cc1CC(C(=O)O)C(=O)O`, the GI50 in the test with A498, in the test with U-251, with HT-29, in the test on SF-539, with IGROV-1 and in the test with OVCAR-3 was > 100 µM (inactive) throughout. Besides, the GI50 with SK-MEL-5, in the test with RPMI-8226, with UACC-257, in the test on 786-0, with UO-31 and in the test on KM12 was > 100 µM (inactive) each time. Besides, the GI50 in the test on OVCAR-5, in the test on SN12C, with UACC-62 and with TK-10 was > 100 µM (inactive) throughout.

Regarding `c1ccc2c(c1)C1CCCCCC21N1CCOCC1` (stereo not drawn), the GI50 with A498 was > 100 µM (inactive); with U-251, 78.5 µM (inactive); in the test on HT-29, 86.3 µM (inactive); with SF-539, > 100 µM (inactive); in the test with IGROV-1, > 100 µM (inactive); in the test with OVCAR-3 it was 20.6 µM (inactive). The GI50 with SK-MEL-5 was 44.2 µM (inactive); in the test on UACC-257, > 100 µM (inactive); with 786-0 it was > 100 µM (inactive); with UO-31, > 100 µM (inactive); in the test on SK-MEL-2 it was > 100 µM (inactive); in the test on KM12 it was > 100 µM (inactive). In addition, the GI50 with OVCAR-5, in the test with SN12C, in the test with UACC-62 and with TK-10 was > 100 µM (inactive) each time.

For `COC12CCC(=O)C=C1c1ccccc1N2C(C)=O` (stereo not drawn), the GI50 in the test with A498, with U-251, with HT-29, in the test on SF-539, with IGROV-1 and in the test on OVCAR-3 was > 100 µM (inactive) throughout. The GI50 in the test on RPMI-8226, with UACC-257, with 786-0, in the test with UO-31, in the test with SK-MEL-2 and in the test on KM12 was > 100 µM (inactive) throughout. In addition, the GI50 with SN12C and in the test with UACC-62 was > 100 µM (inactive) in each case.

On to `COc1ccc2nc(NC(=O)C(=O)NNC(=O)c3ccncc3)sc2c1`, for which the GI50 with A498, with U-251, with HT-29, in the test with SF-539, with IGROV-1 and in the test with OVCAR-3 was > 100 µM (inactive) each time. In addition, the GI50 in the test on SK-MEL-5, in the test with UACC-257, in the test with 786-0, with UO-31, in the test with SN12C and with UACC-62 was > 100 µM (inactive) in each case. In addition, in the test with TK-10, the GI50 is > 100 µM (inactive).

On to `Cn1c(=O)nc2n(-c3cc(C(F)(F)F)cc(C(F)(F)F)c3)c3ccccc3nc-2c1=O`, for which the GI50 is > 100 µM (inactive) in the test on A498; > 100 µM (inactive) in the test with U-251; > 100 µM (inactive) in the test on HT-29; > 100 µM (inactive) with SF-539; > 100 µM (inactive) with IGROV-1; 64.7 µM (inactive) with OVCAR-3. In addition, the GI50 was 8.18 µM (inactive) in the test with SK-MEL-5; > 100 µM (inactive) in the test with RPMI-8226; > 100 µM (inactive) in the test on UACC-257; > 100 µM (inactive) with 786-0; > 100 µM (inactive) in the test on UO-31; > 100 µM (inactive) with SK-MEL-2. In addition, the GI50 with KM12, in the test with OVCAR-5, with SN12C and in the test on TK-10 was > 100 µM (inactive) in each case.

With `O=C1c2ccccc2NC1(c1ccccc1)c1c(-c2ccccc2)[nH]c2ccccc12` (stereo not drawn), the GI50 in the test with A498 was 32.8 µM (inactive); in the test on U-251 it was 14.4 µM (inactive); in the test on HT-29, 17.9 µM (inactive); in the test with SF-539, > 100 µM (inactive); with IGROV-1 it was 4.41 µM (inactive); with OVCAR-3, 21.2 µM (inactive). Moreover, the GI50 in the test with RPMI-8226 was 3.88 µM (inactive); in the test on UACC-257 it was 44 µM (inactive); in the test with 786-0, 18.2 µM (inactive); with UO-31, 7.82 µM (inactive); with SK-MEL-2 it was 11.9 µM (inactive); in the test on KM12, 10.5 µM (inactive). Also, the GI50 in the test with SN12C is 14 µM (inactive); in the test with UACC-62 it was 45.3 µM (inactive).

For `COc1c(Cl)c2c(c(OC)c1OC)-c1ccc(OC)c(=O)c(Cl)c1C(NC(C)=O)CC2` (stereo not drawn), the GI50 in the test with A498 is 0.0593 µM (active); in the test on U-251 it was 0.235 µM (active); in the test on HT-29, 0.156 µM (active); with SF-539, 0.148 µM (active); in the test with IGROV-1 it was 0.466 µM (active); with OVCAR-3, 0.117 µM (active). In addition, the GI50 was 0.141 µM (active) with SK-MEL-5; 0.337 µM (active) in the test with RPMI-8226; 0.14 µM (active) with UACC-257; 0.308 µM (active) in the test on 786-0; 3.63 µM (inactive) with UO-31; 0.284 µM (active) in the test on SK-MEL-2. Also, the GI50 in the test with KM12 was 0.104 µM (active); in the test on SN12C it was 0.444 µM (active); with UACC-62, 0.108 µM (active); in the test on TK-10, 0.69 µM (active).

For `Cc1nc2c(ccc3ncccc32)[nH]1`, the GI50 in the test with U-251, with HT-29, in the test with SF-539, in the test with IGROV-1, in the test with OVCAR-3 and with SK-MEL-5 was > 100 µM (inactive) throughout. Besides, the GI50 in the test on RPMI-8226, in the test with UACC-257, in the test on 786-0, in the test with UO-31, with SK-MEL-2 and in the test with KM12 was > 100 µM (inactive) in each case. Moreover, the GI50 in the test on OVCAR-5, in the test with SN12C, in the test on UACC-62 and with TK-10 was > 100 µM (inactive) in each case.
